Values joined by “and” are separate entries in the source; they are usually repeats but may differ in a detail not shown here. Identical values can stand only once. Inconclusive results and toxic doses are left out. How the source made its calls: active means survival T/C of 150% or more; inactive means T/C below 125% in these data.
System: P388 leukemia ip, CD2F1 mice, survival T/C
Assay: NCI In Vivo Anticancer Drug Screen. Data for tumor model P388 Leukemia (intraperitoneal) in CD2F1 (CDF1) mice
Settings: endpoint: median survival time, higher = longer survival
Method in brief: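 Mice carrying the transplanted tumor received test compound or vehicle. Survival was recorded in each group, and the value is the treated-group measurement divided by that of the vehicle-treated control group.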

[1] = dose: 50.0 mg/kg/injection, schedule: Q01DX005 (ip), vehicle: Klucel (hydroxypropylcellulose) (HPC)
[2] = dose: 100.0 mg/kg/injection, schedule: Q01DX005 (ip), vehicle: Klucel (hydroxypropylcellulose) (HPC)
[3] = dose: 200.0 mg/kg/injection, schedule: Q01DX005 (ip), vehicle: Klucel (hydroxypropylcellulose) (HPC)
[4] = dose: 60.0 mg/kg/injection, schedule: Q01DX005 (ip), vehicle: saline with Tween-80
[5] = dose: 120.0 mg/kg/injection, schedule: Q01DX005 (ip), vehicle: saline with Tween-80
[6] = dose: 240.0 mg/kg/injection, schedule: Q01DX005 (ip), vehicle: saline with Tween-80
[7] = dose: 50.0 mg/kg/injection, schedule: Q01DX005 (ip), vehicle: saline with Tween-80
[8] = dose: 100.0 mg/kg/injection, schedule: Q04DX002 (ip), vehicle: saline with Tween-80
[9] = dose: 200.0 mg/kg/injection, schedule: Q04DX002 (ip), vehicle: saline with Tween-80
[10] = dose: 60.0 mg/kg/injection, schedule: Q01DX005 (ip), vehicle: saline
[11] = dose: 120.0 mg/kg/injection, schedule: Q01DX005 (ip), vehicle: saline
[12] = dose: 240.0 mg/kg/injection, schedule: Q01DX005 (ip), vehicle: saline
[13] = dose: 12.5 mg/kg/injection, schedule: Q01DX009 (ip), vehicle: saline with Tween-80
[14] = dose: 25.0 mg/kg/injection, schedule: Q01DX009 (ip), vehicle: saline with Tween-80
[15] = dose: 25.0 mg/kg/injection, schedule: Q01DX005 (ip), vehicle: Klucel (hydroxypropylcellulose) (HPC)
[16] = dose: 50.0 mg/kg/injection, schedule: Q01DX009 (ip), vehicle: saline with Tween-80
[17] = dose: 100.0 mg/kg/injection, schedule: Q01DX009 (ip), vehicle: saline with Tween-80
[18] = dose: 200.0 mg/kg/injection, schedule: Q01DX009 (ip), vehicle: saline with Tween-80
[19] = dose: 100.0 mg/kg/injection, schedule: Q04DX003 (ip), vehicle: saline
[20] = dose: 200.0 mg/kg/injection, schedule: Q04DX003 (ip), vehicle: saline
[21] = dose: 400.0 mg/kg/injection, schedule: Q04DX003 (ip), vehicle: saline
[22] = dose: 400.0 mg/kg/injection, schedule: Q01DX009 (ip), vehicle: saline with Tween-80

Measured: T/C

CC12CC=CCC1CCC1C2CCC2(C)C(O)C(O)CC12 (stereo unspecified)
inactive: [1] 101 % of control | [2] 95 % of control | [3] 93 % of control

O=C(C[P+](c1ccccc1)(c1ccccc1)c1ccccc1)c1ccccc1
inactive: [4] 105 % of control | [5] 108 % of control | [6] 96 % of control

COc1cc(NCCCCCNC(C)(C)C)c2ncccc2c1
inactive: dose: 12.5 mg/kg/injection, schedule: Q01DX005 (ip), vehicle: saline with Tween-80 98 % of control | dose: 25.0 mg/kg/injection, schedule: Q01DX005 (ip), vehicle: saline with Tween-80 98 % of control | [7] 100 % of control and 103 % of control

Nc1ccc2ccccc2c1-c1cccc2ccccc12
inactive: [7] 96 % of control | dose: 100.0 mg/kg/injection, schedule: Q01DX005 (ip), vehicle: saline with Tween-80 96 % of control | [8] 102 % of control | dose: 200.0 mg/kg/injection, schedule: Q01DX005 (ip), vehicle: saline with Tween-80 102 % of control | [9] 102 % of control | dose: 400.0 mg/kg/injection, schedule: Q04DX002 (ip), vehicle: saline with Tween-80 92 % of control

CN(C)CCC(=O)C(=Cc1cccs1)C(=O)CCN(C)C
inactive: [10] 101 % of control | [11] 98 % of control | [12] 106 % of control

CCCCNCCC(=O)c1ccc(Cl)cc1
inactive: dose: 6.25 mg/kg/injection, schedule: Q01DX009 (ip), vehicle: saline with Tween-80 100 % of control | [13] 100 % of control | [14] 105 % of control

CC1(C(Cl)(Cl)Cl)C=C(Cl)C(=O)C(Cl)=C1
inactive: [15] 99 % of control | [1] 98 % of control and 92 % of control | [2] 102 % of control | [3] 92 % of control

COC(=O)CC12CC3(C)CC(C)(C1)CC(CC(=O)OC)(C3)C2
inactive: [16] 99 % of control | [17] 99 % of control and 108 % of control | [18] 103 % of control and 113 % of control

CC(C)(C)OC(=O)NC(CO)C(=O)O (stereo unspecified)
inactive: [16] 96 % of control | [17] 96 % of control | [18] 99 % of control

C[C@]12CC[C@H]([C@@]3(C)CC[C@H]4CC[C@]43O)[C@@H](CO)[C@@H]1CC[C@@H]2O
inactive: [4] 104 % of control | [5] 98 % of control | [6] 91 % of control

CCOC(=O)c1ccc(NCc2cccc([N+](=O)[O-])c2)cc1
inactive: [19] 109 % of control | [20] 101 % of control | [21] 101 % of control

C/C(=N\NC(=S)N1CC2CCC(CC2)C1)c1ccccn1
inactive: dose: 1.56 mg/kg/injection, schedule: Q01DX009 (ip), vehicle: Klucel (hydroxypropylcellulose) (HPC) 101 % of control and 118 % of control | dose: 3.12 mg/kg/injection, schedule: Q01DX009 (ip), vehicle: Klucel (hydroxypropylcellulose) (HPC) 107 % of control | dose: 3.13 mg/kg/injection, schedule: Q01DX009 (ip), vehicle: Klucel (hydroxypropylcellulose) (HPC) 120 % of control | dose: 6.25 mg/kg/injection, schedule: Q01DX009 (ip), vehicle: Klucel (hydroxypropylcellulose) (HPC) 115 % of control and 123 % of control | dose: 12.5 mg/kg/injection, schedule: Q01DX009 (ip), vehicle: Klucel (hydroxypropylcellulose) (HPC) 115 % of control

COc1nc(/C=C/c2ccccc2)c([N+](=O)[O-])c(OC)n1
inactive: [19] 103 % of control | [20] 103 % of control | [21] 100 % of control

O=P(O)(O)O
inactive: [10] 97 % of control | [11] 97 % of control | [12] 90 % of control

C=C1C(=O)OC2/C=C(/C)C3OC3/C=C(/C(=O)OC)C(OC(C)=O)C(OC(=O)C3(C)OC3C)C12 (stereo unspecified)
inactive: dose: 1.5 mg/kg/injection, schedule: Q01DX009 (ip), vehicle: Klucel (hydroxypropylcellulose) (HPC) 124 % of control | dose: 12.0 mg/kg/injection, schedule: Q01DX009 (ip), vehicle: Klucel (hydroxypropylcellulose) (HPC) 86 % of control

CCNc1nc(NC(C)C)nc(-c2ccncc2)n1
inactive: dose: 12.5 mg/kg/injection, schedule: Q01DX005 (ip), vehicle: Klucel (hydroxypropylcellulose) (HPC) 108 % of control | [15] 96 % of control | [1] 101 % of control | [2] 108 % of control

CCOc1c(N=Nc2ccc(Cl)cc2Cl)c(C)nn1C(N)=S
inactive: dose: 15.0 mg/kg/injection, schedule: Q01DX005 (ip), vehicle: Klucel (hydroxypropylcellulose) (HPC) 95 % of control | dose: 30.0 mg/kg/injection, schedule: Q01DX005 (ip), vehicle: Klucel (hydroxypropylcellulose) (HPC) 90 % of control

O=P(O)(O)OCC1(O)OCC(O)C(O)C1O (stereo unspecified)
inactive: dose: 12.5 mg/kg/injection, schedule: Q01DX005 (ip), vehicle: saline 106 % of control | dose: 25.0 mg/kg/injection, schedule: Q01DX005 (ip), vehicle: saline 104 % of control | dose: 50.0 mg/kg/injection, schedule: Q01DX005 (ip), vehicle: saline 99 % of control and 103 % of control

CC1C(=O)OC2C1CCC1(C)C=C(Cl)C(=O)C(C)(Cl)C21O (stereo unspecified)
inactive: dose: 50.0 mg/kg/injection, schedule: Q04DX002 (ip), vehicle: saline with Tween-80 111 % of control | [8] 107 % of control | [9] 100 % of control

COc1cccc(CN2CCCN(/N=C/c3c4c(O)c5c(O)c(C)c6c(c5c3O)C(=O)C(C)(O/C=C/C(OC)C(C)C(OC(C)=O)C(C)C(O)C(C)C(O)C(C)/C=C/C=C(/C)C(=O)N4)O6)CC2)c1 (stereo unspecified)
inactive: [13] 108 % of control | [14] 109 % of control | [16] 103 % of control and 108 % of control | [17] 115 % of control

O=C(O)/C=C\c1c[nH]c2ccccc12
inactive: [4] 94 % of control | [5] 94 % of control | [6] 88 % of control

O=C(c1ccc(C(F)(F)F)cc1)N1C2C3C=CC(C3)C2N1C(=O)c1ccc(C(F)(F)F)cc1 (stereo unspecified)
inactive: dose: 50.0 mg/kg/injection, schedule: Q04DX002 (ip), vehicle: Klucel (hydroxypropylcellulose) (HPC) 102 % of control | dose: 100.0 mg/kg/injection, schedule: Q04DX002 (ip), vehicle: Klucel (hydroxypropylcellulose) (HPC) 106 % of control | dose: 200.0 mg/kg/injection, schedule: Q04DX002 (ip), vehicle: Klucel (hydroxypropylcellulose) (HPC) 102 % of control

CCN(CC)CCC#N
inactive: dose: 50.0 mg/kg/injection, schedule: Q01DX009 (ip), vehicle: saline 94 % of control | dose: 100.0 mg/kg/injection, schedule: Q01DX009 (ip), vehicle: saline 87 % of control | dose: 200.0 mg/kg/injection, schedule: Q01DX009 (ip), vehicle: saline 88 % of control

CCCCCCCCC1SC1CCCCCCCC(=O)OCCOCCOCC (stereo unspecified)
inactive: [17] 104 % of control | [18] 104 % of control | [22] 100 % of control

CCN(CC)c1c(C)nnc2c3c(-c4ccccc4)c(-c4ccccc4)nnc3nn12
inactive: dose: 50.0 mg/kg/injection, schedule: Q04DX003 (ip), vehicle: saline with Tween-80 86 % of control | dose: 200.0 mg/kg/injection, schedule: Q04DX003 (ip), vehicle: saline with Tween-80 86 % of control | dose: 400.0 mg/kg/injection, schedule: Q04DX003 (ip), vehicle: saline with Tween-80 91 % of control

CC1CC(O)C2C1CC1CCC2(C)OC1(C)C (stereo unspecified)
inactive: [17] 105 % of control | [18] 105 % of control | [22] 100 % of control

CN1CCN(C(=O)N2CCCc3ccccc32)CC1
inactive: [19] 101 % of control | [20] 99 % of control
